One may read the IC50 as the concentration that inhibits the measured activity by half.

The values below come from patent publication US10508085B2, “Compounds and methods for IDO and TDO modulation, and indications therefor” (Plexxikon Inc., priority 2016, dated 2019).

pIC50: −log10 of the molar value. Like-named read-outs stand apart in the source and are kept apart here.

The target in experiment [1] is T1, human TDO (TDO-expressing HEK293 cells) (Homo sapiens, UniProt P48775).
T1 construct: expressed in transfected cells
Briefly: Cell based kynurenine assay, TDO-expressing HEK293 cell clones. As to conditions: for IC50: TDO-expressing HEK293 cells, geometric mean, read-out: HEK293 TDO Kynurenine GMean IC50 (μM) (Cellular Assay). The method, boiled down:
(§1)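 Kynurenine in culture supernatant read after 24 h compound exposure of HEK293 cells stably expressing human IDO1 or TDO. IC50 from nonlinear regression of % inhibition relative to 0.2% DMSO cell (high) and media-only (low) controls.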

The target of experiment [2] is T2, human IDO (IDO1-expressing HEK293 cells) (Homo sapiens, UniProt P14902).
T2 construct: expressed in transfected cells
Briefly: Cell based kynurenine assay, IDO1-expressing HEK293 cell clones. The note with it: for IC50: IDO1-expressing HEK293 cells, geometric mean, read-out: HEK293 IDO1 Kynurenine GMean IC50 (μM) (Cellular Assay). The method, boiled down:
as §1

Experiment [3] deals with T3, Human Indoleamine 2,3-dioxygenase (IDO) (Homo sapiens, UniProt P14902).
T3 construct: His tag (N); made in house; host or cells: E. coli
As to the kind of experiment: Human IDO enzymatic assay (kynurenine level). The format is biochemical. The note with it: for IC50: 6 nM IDO, 10 μM L-Trp, geometric mean, read-out: IDO1 GMean: IC50 (μM) (Biochemical Assay). Summed up:
(§2)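 IDO conditions: 6 nM His-IDO, 10 μM L-Trp, 5 μM methylene blue, 20 min, RT. TDO conditions: 1 nM His-TDO, 350 μM L-Trp, 0.4 μM methylene blue, 70 min, RT. Both used pH 6.5 phosphate plus ascorbate/catalase, TCA stop at 50° C, kynurenine readout, nonlinear-regression IC50.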

Experiment [4] concerns the target T4, Human Tryptophan 2,3-dioxygenase (TDO) (Homo sapiens, UniProt P48775).
T4 construct: His tag (N); made in house; host or cells: E. coli
Briefly: Human TDO enzymatic assay (kynurenine level). The class given is biochemical. The note with it: for IC50: 1 nM TDO, 350 μM L-Trp, geometric mean, read-out: TDO GMean: IC50 (μM) (Biochemical Assay). Summed up: as §2

T1 sequence (P48775 whole entry): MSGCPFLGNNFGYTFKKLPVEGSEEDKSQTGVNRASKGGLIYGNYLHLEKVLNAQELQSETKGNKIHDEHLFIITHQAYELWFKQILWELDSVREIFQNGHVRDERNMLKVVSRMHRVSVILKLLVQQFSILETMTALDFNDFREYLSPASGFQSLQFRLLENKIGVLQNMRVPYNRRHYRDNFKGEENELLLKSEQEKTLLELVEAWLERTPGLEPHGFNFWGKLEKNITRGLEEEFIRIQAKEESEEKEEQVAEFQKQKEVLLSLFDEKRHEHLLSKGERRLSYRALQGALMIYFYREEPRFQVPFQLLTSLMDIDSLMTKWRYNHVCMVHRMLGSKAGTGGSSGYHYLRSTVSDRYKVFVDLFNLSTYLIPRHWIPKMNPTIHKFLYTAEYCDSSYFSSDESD
T4 sequence (P48775 whole entry): as above
T3 sequence (P14902 whole entry): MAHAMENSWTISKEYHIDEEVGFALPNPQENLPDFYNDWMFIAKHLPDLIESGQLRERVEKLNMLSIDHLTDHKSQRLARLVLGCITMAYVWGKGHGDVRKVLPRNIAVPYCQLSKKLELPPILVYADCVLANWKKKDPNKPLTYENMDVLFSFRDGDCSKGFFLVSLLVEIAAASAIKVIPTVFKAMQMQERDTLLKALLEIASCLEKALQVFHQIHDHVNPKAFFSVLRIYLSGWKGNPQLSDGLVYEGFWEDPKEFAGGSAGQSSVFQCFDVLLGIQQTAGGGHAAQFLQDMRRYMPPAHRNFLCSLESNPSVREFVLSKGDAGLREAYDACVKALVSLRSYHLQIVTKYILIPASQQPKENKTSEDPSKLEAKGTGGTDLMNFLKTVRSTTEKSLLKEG
T2 sequence (P14902 whole entry): as above

Take `CC(C)(C1CCN(C(=O)C2CCOCC2)CC1)C(O)c1cc(Cl)cc2cn[nH]c12` (stereo not shown) [Compound P-0458, (4-(1-(5-chloro-1H-indazol-7-yl)-1-hydroxy-2-methylpropan-2-yl)piperidin-1-yl)(tetrahydro-2H-pyran-4-yl)methanone]: the IC50 in experiment [1] (24 hours), in experiment [2] (24 hours), in experiment [3] and in experiment [4] was 0.0001 to 10 µM throughout.

In the case of `CNC(=O)N1CCC(C2(C(O)c3c(F)c(Cl)cc4cn[nH]c34)CC2)CC1` (stereo not shown) [Compound P-0162, 4-(1-((5-chloro-6-fluoro-1H-indazol-7-yl)(hydroxy)methyl)cyclopropyl)-N-methylpiperidine-1-carboxamide], the IC50 in experiment [1] (24 hours incubation), in experiment [2] (24 hours incubation), in experiment [3] and in experiment [4] was 0.0001 to 10 µM in each case.

As to `O=C(NCC(F)(F)F)N1CCC(C(F)(F)C(O)c2c(F)c(Cl)cc3cn[nH]c23)CC1` (stereo not shown) [Compound P-0378, 4-(2-(5-chloro-6-fluoro-1H-indazol-7-yl)-1,1-difluoro-2-hydroxyethyl)-N-(2,2,2-trifluoroethyl) piperidine-1-carboxamide], the IC50 in experiment [1] (24 hours incubation), in experiment [2] (24 hours incubation), in experiment [3] and in experiment [4] was 0.0001 to 10 µM each time.

As to `OC(c1cccc2cncn12)C1CCCCC1` (stereo not shown) [Compound P-0060, cyclohexyl(imidazo[1,5-a]pyridin-5-yl)methanol], the IC50 in experiment [1] (24 hours incubation) is above 10 µM; in experiment [2] (24 hours incubation), 0.0001 to 10 µM; in experiment [3], 0.0001 to 10 µM; in experiment [4], 0.0001 to 10 µM.

As for `CC(=O)N1C[C@H]2CC[C@@H](C1)[C@H]2C(F)(F)C(O)c1c(F)c(Cl)cc2cn[nH]c12` (stereo partly drawn) [Compound P-0138, 1-((1R,5S,8s)-8-(2-(5-chloro-6-fluoro-1H-indazol-7-yl)-1,1-difluoro-2-hydroxyethyl)-3-azabicyclo[3.2.l]octan-3-yl)ethan-l-one], the IC50 in experiment [1] (24 hours incubation), in experiment [2] (24 hours incubation), in experiment [3] and in experiment [4] was 0.0001 to 10 µM throughout.

Take `OC(c1cc(Cl)cc2cn[nH]c12)C(C1CC1)C1CC1` (stereo not shown) [Compound P-0204, 1-(5-chloro-1H-indazol-7-yl)-2,2-dicyclopropylethan-1-ol]: the IC50 in experiment [1] (24 hours incubation), in experiment [2] (24 hours incubation), in experiment [3] and in experiment [4] was 0.0001 to 10 µM each time.

Consider `OC(c1c2c(cc3cn[nH]c13)CC2)C1CC2CCC1C2` (stereo not shown) [Compound P-0293, bicyclo[2.2.1]heptan-2-yl(5,6-dihydro-1H-cyclobuta[f]indazol-7-yl)methanol], for which the IC50 in experiment [1] (24 hours incubation), in experiment [2] (24 hours incubation), in experiment [3] and in experiment [4] was 0.0001 to 10 µM throughout.

Regarding `CC1(C(O)c2cc(Cl)cc3cn[nH]c23)CCOCC1` (stereo not shown) [Compound P-0236, (5-chloro-1H-indazol-7-yl)(4-methyltetrahydro-2H-pyran-4-yl)methanol], the IC50 in experiment [1] (24 hours incubation), in experiment [2] (24 hours incubation), in experiment [3] and in experiment [4] was 0.0001 to 10 µM each time.

As to `CC(C)(C1CCN(C(=O)C2CC2)CC1)[C@@H](O)c1cc(Cl)cc2cn[nH]c12` [Compound P-0424, (R)-(4-(1-(5-chloro-1H-indazol-7-yl)-1-hydroxy-2-methylpropan-2-yl)piperidin-1-yl)(cyclopropyl) methanone], the IC50 in experiment [1] (24 hours) was 0.0001 to 10 µM; in experiment [2] (24 hours), above 10 µM; in experiment [3], 0.0001 to 10 µM; in experiment [4], 0.0001 to 10 µM.

Take `OC1(c2cc(Cl)cc3cn[nH]c23)CC2(CCOCC2)C1` [drawing 820]: the pIC50 in experiment [1] (cellular assay, HEK293, 24 hours, comparative examples, read-out: hTDO) was 5.62; in experiment [2] (cellular assay, HEK293, 24 hours, comparative examples, read-out: hIDO1) it was 6.40; in experiment [3] (biochemical assay, comparative examples, 4,6 versus 5,7 indazole, read-out: IDO1), 6.80; in experiment [4] (biochemical assay, comparative examples, 4,6 versus 5,7 indazole, read-out: TDO) it was 6.66.

On to `O=C(Cc1ccnc(Cl)c1)N1CCC(C(F)(F)C(O)c2cc(Cl)cc3cn[nH]c23)CC1` (stereo not shown) [Compound P-0525, 1-(4-(2-(5-chloro-1H-indazol-7-yl)-1,1-difluoro-2-hydroxyethyl)piperidin-1-yl)-2-(2-chloropyridin-4-yl)ethan-1-one], for which the IC50 in experiment [1] (24 hours), in experiment [2] (24 hours), in experiment [3] and in experiment [4] was 0.0001 to 10 µM each time.

On to `CS(=O)(=O)N1CCC(C(F)(F)C(O)c2cc(Cl)cc3cn[nH]c23)CC1` (stereo not shown) [Compound P-0270, 1-(5-chloro-1H-indazol-7-yl)-2,2-difluoro-2-(1-(methylsulfonyl)piperidin-4-yl)ethan-1-ol], for which the IC50 in experiment [1] (24 hours incubation), in experiment [2] (24 hours incubation), in experiment [3] and in experiment [4] was 0.0001 to 10 µM throughout.

With `N#Cc1ccc(NC(=O)N2CCC(C(F)(F)C(O)c3cc(Cl)cc4cn[nH]c34)CC2)cc1` (stereo not shown) [Compound P-0483, 4-(2-(5-chloro-1H-indazol-7-yl)-1,1-difluoro-2-hydroxyethyl)-N-(4-cyanophenyl) piperidine-1-carboxamide], the half-maximal inhibitory concentration (IC50) in experiment [1] (24 hours), in experiment [2] (24 hours), in experiment [3] and in experiment [4] was 0.0001 to 10 µM in each case.

For the molecule `CC1(C(O)c2cc(Cl)cc3cn[nH]c23)CCC1` (stereo not shown) [Compound P-0117, (5-chloro-1H-indazol-7-yl)(1-methylcyclobutyl)methanol], the IC50 in experiment [1] (24 hours incubation), in experiment [2] (24 hours incubation), in experiment [3] and in experiment [4] was 0.0001 to 10 µM each time.

With `CC(C)(C1CCN(C(=O)NCCNS(C)(=O)=O)CC1)C(O)c1cc(Cl)cc2cn[nH]c12` (stereo not shown) [Compound P-0493, 4-(1-(5-chloro-1H-indazol-7-yl)-1-hydroxy-2-methylpropan-2-yl)-N-(2-(methylsulfonamido)ethyl)piperidine-1-carboxamide], the IC50 in experiment [1] (24 hours), in experiment [2] (24 hours), in experiment [3] and in experiment [4] was 0.0001 to 10 µM in each case.

Take `CNC(=O)N1CCC(C(C)(C)[C@@H](O)c2cc(Cl)cc3cn[nH]c23)CC1` [Compound P-0427, (R)-4-(1-(5-chloro-1H-indazol-7-yl)-1-hydroxy-2-methylpropan-2-yl)-N-methylpiperidine-1-carboxamide]: the IC50 in experiment [1] (24 hours), in experiment [2] (24 hours), in experiment [3] and in experiment [4] was 0.0001 to 10 µM throughout.

Turning to `CCCS(=O)(=O)N1CCC(C(C)(C)C(O)c2cc(Cl)cc3cn[nH]c23)CC1` (stereo not shown) [Compound P-0305, 1-(5-chloro-1H-indazol-7-yl)-2-methyl-2-(1-(propylsulfonyl)piperidin-4-yl)propan-1-ol], the IC50 in experiment [1] (24 hours incubation), in experiment [2] (24 hours incubation), in experiment [3] and in experiment [4] was 0.0001 to 10 µM in each case.

Take `CC(C)(O)CNC(=O)N1CCC(C(C)(C)C(O)c2cc(Cl)cc3cn[nH]c23)CC1` (stereo not shown) [Compound P-0475, 4-(1-(5-chloro-1H-indazol-7-yl)-1-hydroxy-2-methylpropan-2-yl)-N-(2-hydroxy-2-methylpropyl) piperidine-1-carboxamide]: the IC50 in experiment [1] (24 hours), in experiment [2] (24 hours), in experiment [3] and in experiment [4] was 0.0001 to 10 µM each time.

`CC(C)(C)OC(=O)N1CCC(C(C)(C)[C@H](O)c2c(F)c(Cl)cc3cn[nH]c23)CC1` [Compound P-0383, tert-butyl (S)-4-(1-(5-chloro-6-fluoro-1H-indazol-7-yl)-1-hydroxy-2-methylpropan-2-yl)piperidine-1-carboxylate]: the IC50 in experiment [1] (24 hours incubation), in experiment [2] (24 hours incubation), in experiment [3] and in experiment [4] was 0.0001 to 10 µM each time.
